Results reported in US20220213060A1, “Crystal Form of Quinazolinone Compound and Preparation Method Therefor” (Luoxin Healthcare Science and Technology Development …, priority 2019, published 2022).

Key:
[1] = biological target: T1, PI3Kβ (Homo sapiens, UniProt P42338); test: In vitro enzymatic activity test (ADP-Glo lipid kinase), PI3Kβ; assay type: biochemical; conditions: inhibitory activity against PI3Kα relative to PI3Kβ
T1 construct: purchased Promega V1751
Method: (§1) The lipid kinase reaction was carried out in a suitable substrate and under ATP conditions, then the activity of the kinase was detected by ADP-Glo™ kit in two steps. Step 1: the kinase reaction was terminated, in which the residual ATP was completely removed and only ADP was retained; step 2: kinase detection reagent was added to convert ADP to ATP, accompanied by fluorescein/luciferase reaction. Finally, the fluorescence value output was converted into kinase activity.
(§2) Experimental Materials and Equipment:
(§3) 2) Kit: ADP-Glo™ lipid kinase and PIP2:3PS kit (Promega #V1792)
(§4) The reagent kit contains: 1 mM PIP2:3PS, 10× lipid dilution buffer, 1 M magnesium chloride, 10 mM ATP, 10 mM ADP, ADP-Glo reagent, detection buffer and detection substrate.
(§5) 3) Reaction plate: OptiPlate-384, white and transparent (PerkinElmer #6007299)
(§6) 1) 10× reaction buffer: 500 mM HEPES, pH 7.5, 500 mM NaCl, […]; BSA: 10% stock solution, self-made
(§7) 2) Final test system conditions: 1× reaction system: 50 mM of HEPES, 50 mM of NaCl, 3 mM of MgCl2, 0.01% BSA (freshly prepared on the day of experiment), 1% DMSO (v/v)+/−compound
(§8) 3) Reaction system: 3 μL of mixture of enzyme and substrate (1:1)+2 μL of ATP/MgCl2 mixture+5 μL of ADP-Glo reagent+10 μL of detection reagent.
(§9) The specific experimental operations were as follows: […]
(§10) (16) Fluorescence values were measured on the Envision instrument.

[2] = Hygroscopicity by dynamic vapor sorption (DVS); assay type: physicochemical; conditions: 25° C. and 80% RH; listed as crystal form A of the compound represented by formula (I)
Method: 1.4 Dynamic Vapor Sorption (DVS) Method of the Present Disclosure
Instrument model: SMS DVS Advantage dynamic vapor sorption instrument
Detection conditions: 10-20 mg of sample was placed in a DVS sample tray for testing.
Detailed DVS parameters were as follows:
Equilibrium: dm/dt=0.01%/min: (shortest: 10 min, longest: 180 min)
Drying: drying at 0% RH for 120 min
RH (%) test gradient: 10%
RH (%) test gradient range: 0%-90%-0%
Hygroscopicity evaluation is classified as follows:
20 mg of the crystal form A of the compound represented by formula (I) was placed in the DVS sample tray for testing.

[3] = tested on: RAW264.7; test: Akt phosphorylation inhibition in RAW264.7 cells (high expression of PI3Kγ); assay type: cell-based; conditions: RAW264.7 cell line with high expression of PI3Kγ
[4] = biological target: Mutant PI3Kα (H1047R) (Homo sapiens, UniProt P42336, H1047R); test: In vitro enzymatic activity test, mutant PI3Kα (H1047R); assay type: biochemical
Description: (§11) The crystal form A of the compound represented by formula (I) has a strong inhibitory effect on both wild-type and mutant PI3Kα kinases. […] The crystal form A of the compound represented by formula (I) has excellent selectivity to the other three subtypes of PI3K, and its inhibitory activity against PI3Kα is 149/7.44/6.61 times higher than that of PI3Kβ/δ/γ, respectively. The specific experimental method was the same as experimental embodiment 8. […] The specific experimental method was the same as experimental embodiment 9.
as §1, §2, §3
(§12) The reagent kit contains: 1 mM PIP2:3PS, 10× lipid dilution buffer, 1 M magnesium chloride, 10 mM ATP, 10 mM ADP, ADP-Glo reagent, detection buffer and detection substrate. […]
as §10

[5] = biological target: Mutant PI3Kα (E545K) (Homo sapiens, UniProt P42336, E545K); test: In vitro enzymatic activity test, mutant PI3Kα (E545K); assay type: biochemical
Description: as §11, §1, §2, §3, §12, §10

[6] = tested on: MDA-MB-468; test: Akt phosphorylation inhibition in MDA-MB-468 cells (high expression of PI3Kβ); assay type: cell-based; conditions: MDA-MB-468 cell line with high expression of PI3Kβ
[7] = biological target: T2, PI3Kδ (Homo sapiens, UniProt O00329); test: In vitro enzymatic activity test (ADP-Glo lipid kinase), PI3Kδ; assay type: biochemical; conditions: inhibitory activity against PI3Kα relative to PI3Kδ
T2 construct: purchased Millipore 14-604-K
Method: as §1, §2, §3, §4, §5, §6, §7, §8, §9, §10

[8] = biological target: T3, PI3Kα (Homo sapiens, UniProt P42336); test: In vitro enzymatic activity test (ADP-Glo lipid kinase), PI3Kα wild type; assay type: biochemical; conditions: wild-type PI3Kα kinase; read-out: Wild type PI3Kα IC50
T3 construct: purchased Millipore 14-602-K
Method: as §1, §2, §3, §4, §5, §6, §7, §8, §9, §10

[9] = biological target: T4, PI3Kγ (Homo sapiens, UniProt P48736); test: In vitro enzymatic activity test (ADP-Glo lipid kinase), PI3Kγ; assay type: biochemical; conditions: inhibitory activity against PI3Kα relative to PI3Kγ
T4 construct: purchased Millipore 14-558-K
Method: as §1, §2, §3, §4, §5, §6, §7, §8, §9, §10

T3 sequence (P42336 whole entry): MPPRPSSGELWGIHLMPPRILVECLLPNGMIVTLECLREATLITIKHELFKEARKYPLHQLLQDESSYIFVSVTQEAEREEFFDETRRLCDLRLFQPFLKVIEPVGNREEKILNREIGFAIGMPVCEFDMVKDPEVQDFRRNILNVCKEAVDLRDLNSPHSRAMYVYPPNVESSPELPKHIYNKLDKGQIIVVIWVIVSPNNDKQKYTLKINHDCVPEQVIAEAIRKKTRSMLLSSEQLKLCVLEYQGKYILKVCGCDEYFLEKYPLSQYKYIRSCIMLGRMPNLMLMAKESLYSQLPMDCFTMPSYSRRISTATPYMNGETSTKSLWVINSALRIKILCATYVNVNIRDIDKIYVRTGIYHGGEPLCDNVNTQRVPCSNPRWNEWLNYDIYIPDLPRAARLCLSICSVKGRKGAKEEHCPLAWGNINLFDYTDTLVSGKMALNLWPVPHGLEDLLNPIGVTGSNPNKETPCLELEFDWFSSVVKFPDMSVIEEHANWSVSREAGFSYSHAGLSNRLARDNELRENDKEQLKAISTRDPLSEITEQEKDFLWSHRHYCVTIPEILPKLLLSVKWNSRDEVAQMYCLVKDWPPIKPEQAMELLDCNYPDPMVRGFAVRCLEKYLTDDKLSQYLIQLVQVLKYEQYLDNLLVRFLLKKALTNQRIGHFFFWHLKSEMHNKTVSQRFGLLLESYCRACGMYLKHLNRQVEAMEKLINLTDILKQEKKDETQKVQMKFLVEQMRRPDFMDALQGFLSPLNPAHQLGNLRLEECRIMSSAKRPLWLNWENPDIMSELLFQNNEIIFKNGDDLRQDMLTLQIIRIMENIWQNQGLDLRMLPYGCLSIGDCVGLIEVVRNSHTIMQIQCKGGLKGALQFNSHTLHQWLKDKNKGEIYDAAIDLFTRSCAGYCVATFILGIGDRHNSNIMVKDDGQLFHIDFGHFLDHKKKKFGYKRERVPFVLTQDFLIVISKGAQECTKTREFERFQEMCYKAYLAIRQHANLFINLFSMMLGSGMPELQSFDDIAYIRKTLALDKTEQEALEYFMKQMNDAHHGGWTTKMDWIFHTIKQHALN
T3 sequence (P27986 whole entry partner): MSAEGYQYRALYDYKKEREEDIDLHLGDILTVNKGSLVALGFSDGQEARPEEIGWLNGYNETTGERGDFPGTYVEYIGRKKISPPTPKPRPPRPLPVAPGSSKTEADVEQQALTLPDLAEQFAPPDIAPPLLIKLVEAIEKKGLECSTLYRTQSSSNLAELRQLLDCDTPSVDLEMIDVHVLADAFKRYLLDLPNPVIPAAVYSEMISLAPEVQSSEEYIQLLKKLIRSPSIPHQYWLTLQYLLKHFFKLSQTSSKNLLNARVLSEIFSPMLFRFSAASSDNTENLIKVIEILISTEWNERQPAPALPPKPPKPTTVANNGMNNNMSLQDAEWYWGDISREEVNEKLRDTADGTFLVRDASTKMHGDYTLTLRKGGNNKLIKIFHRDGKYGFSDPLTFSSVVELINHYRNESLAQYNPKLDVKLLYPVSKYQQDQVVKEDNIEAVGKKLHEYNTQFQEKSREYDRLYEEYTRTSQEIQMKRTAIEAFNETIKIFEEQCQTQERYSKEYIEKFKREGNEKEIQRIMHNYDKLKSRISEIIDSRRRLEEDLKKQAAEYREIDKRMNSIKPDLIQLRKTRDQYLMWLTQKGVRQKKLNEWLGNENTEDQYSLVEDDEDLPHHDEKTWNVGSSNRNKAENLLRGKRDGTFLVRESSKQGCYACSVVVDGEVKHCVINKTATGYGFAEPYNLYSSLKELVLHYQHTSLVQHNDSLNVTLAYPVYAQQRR
T1 sequence (P42338 whole entry): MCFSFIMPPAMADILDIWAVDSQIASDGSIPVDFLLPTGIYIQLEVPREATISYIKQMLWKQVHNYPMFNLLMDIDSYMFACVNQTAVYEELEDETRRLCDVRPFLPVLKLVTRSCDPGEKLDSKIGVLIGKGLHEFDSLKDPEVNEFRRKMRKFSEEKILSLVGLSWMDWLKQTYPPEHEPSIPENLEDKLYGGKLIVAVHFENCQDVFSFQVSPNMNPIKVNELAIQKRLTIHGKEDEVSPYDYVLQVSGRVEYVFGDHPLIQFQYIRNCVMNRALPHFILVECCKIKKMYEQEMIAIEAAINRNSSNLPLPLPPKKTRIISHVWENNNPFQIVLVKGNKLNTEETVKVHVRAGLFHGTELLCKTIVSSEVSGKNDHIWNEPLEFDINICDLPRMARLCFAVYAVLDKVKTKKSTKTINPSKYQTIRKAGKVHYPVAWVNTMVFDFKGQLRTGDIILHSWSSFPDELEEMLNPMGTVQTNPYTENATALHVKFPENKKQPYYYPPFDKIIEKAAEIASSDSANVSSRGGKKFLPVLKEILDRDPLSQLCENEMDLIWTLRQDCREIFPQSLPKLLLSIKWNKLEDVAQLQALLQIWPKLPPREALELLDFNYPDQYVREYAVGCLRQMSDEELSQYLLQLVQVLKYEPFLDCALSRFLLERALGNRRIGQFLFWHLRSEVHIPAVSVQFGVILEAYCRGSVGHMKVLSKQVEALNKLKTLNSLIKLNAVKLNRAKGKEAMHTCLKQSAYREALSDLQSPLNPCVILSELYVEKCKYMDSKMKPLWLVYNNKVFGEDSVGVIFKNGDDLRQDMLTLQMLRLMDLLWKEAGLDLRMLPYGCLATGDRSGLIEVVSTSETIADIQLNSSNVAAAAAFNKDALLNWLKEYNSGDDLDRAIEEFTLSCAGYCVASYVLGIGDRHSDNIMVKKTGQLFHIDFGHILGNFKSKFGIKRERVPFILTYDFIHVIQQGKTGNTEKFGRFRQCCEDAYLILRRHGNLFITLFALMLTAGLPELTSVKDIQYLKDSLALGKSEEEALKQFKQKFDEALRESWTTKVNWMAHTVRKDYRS
T1 sequence (P27986 whole entry partner): as the sequence (P27986 whole entry partner) above
T4 sequence (P48736 whole entry): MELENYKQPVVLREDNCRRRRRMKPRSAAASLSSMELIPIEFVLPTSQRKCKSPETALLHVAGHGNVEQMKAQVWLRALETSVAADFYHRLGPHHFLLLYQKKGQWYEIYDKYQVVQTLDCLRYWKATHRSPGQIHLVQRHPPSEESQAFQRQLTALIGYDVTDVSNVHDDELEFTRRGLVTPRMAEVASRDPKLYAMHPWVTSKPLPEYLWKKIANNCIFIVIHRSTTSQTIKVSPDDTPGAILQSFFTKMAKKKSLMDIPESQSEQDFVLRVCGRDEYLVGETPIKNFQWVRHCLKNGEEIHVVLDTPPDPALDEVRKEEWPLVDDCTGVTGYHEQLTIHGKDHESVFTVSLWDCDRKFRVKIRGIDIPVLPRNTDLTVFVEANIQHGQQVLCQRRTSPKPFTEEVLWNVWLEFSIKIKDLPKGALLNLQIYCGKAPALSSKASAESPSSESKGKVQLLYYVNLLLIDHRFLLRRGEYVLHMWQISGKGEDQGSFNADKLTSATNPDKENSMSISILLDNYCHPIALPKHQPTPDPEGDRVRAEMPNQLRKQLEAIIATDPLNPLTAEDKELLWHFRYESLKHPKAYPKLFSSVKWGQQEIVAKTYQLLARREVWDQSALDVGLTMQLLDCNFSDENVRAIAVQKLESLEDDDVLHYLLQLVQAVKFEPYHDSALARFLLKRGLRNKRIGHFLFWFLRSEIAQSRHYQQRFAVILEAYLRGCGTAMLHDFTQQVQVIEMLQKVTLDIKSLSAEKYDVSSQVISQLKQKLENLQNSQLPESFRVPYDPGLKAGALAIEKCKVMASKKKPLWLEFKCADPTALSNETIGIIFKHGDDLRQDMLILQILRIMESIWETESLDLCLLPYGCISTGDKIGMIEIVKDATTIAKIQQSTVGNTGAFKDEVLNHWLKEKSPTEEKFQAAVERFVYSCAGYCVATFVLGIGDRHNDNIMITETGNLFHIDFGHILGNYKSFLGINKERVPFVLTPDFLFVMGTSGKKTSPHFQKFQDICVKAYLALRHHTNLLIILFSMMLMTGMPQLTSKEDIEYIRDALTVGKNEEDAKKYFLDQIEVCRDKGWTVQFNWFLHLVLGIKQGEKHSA
Mutant PI3Kα (E545K), sequence (P42336 whole entry E545K): as the sequence (P42336 whole entry) above, with E545K counted along it
Mutant PI3Kα (E545K), sequence (P27986 whole entry partner): as the sequence (P27986 whole entry partner) above
Mutant PI3Kα (H1047R), sequence (P42336 whole entry H1047R): as the sequence (P42336 whole entry) above, with H1047R counted along it
Mutant PI3Kα (H1047R), sequence (P27986 whole entry partner): as the sequence (P27986 whole entry partner) above

## CNC(=O)[C@H](C)Cn1cnc2ccc(-c3cnc(OC)c(NS(=O)(=O)c4ccc(F)cc4F)c3)cc2c1=O
[1]
  Selectivity PI3Kα/β (kinase): 149 times
[2]
  Classification for hygroscopicity: slightly hygroscopic (2% > ΔW% ≥ 0.2%)
  ΔW, hygroscopical weight gain: 0.885%
[3]
  Selectivity PI3Kα over PI3Kγ, Akt phosphorylation inhibitory activity in cells: > 694 times
[4]
  IC50: 0.69 nM
[5]
  IC50: 1.13 nM
[6]
  Selectivity PI3Kα over PI3Kβ, Akt phosphorylation inhibitory activity in cells: 195 times
[7]
  Selectivity PI3Kα/δ (kinase): 7.44 times
[8]
  IC50: 1.8 nM
[9]
  Selectivity PI3Kα/γ (kinase): 6.61 times
